Assay results reported in publication PMC11755709, “Cytotoxicity and Oxidative Stress Induced by Technology-Critical Elements versus Traditional Metal Contaminants: An In Vitro Bioassay Study” (Environmental Science & Technology, 2025).
Entries after “also recorded” stand apart in the source; their conditions may differ. Like-named read-outs stand apart in the source and are kept apart here.

Tests used:
[1] = system: nuclear factor erythroid 2-related factor 2 (Nrf2) pathway; type: cell-based, human; conditions: for ECIR1.5 (effective concentration at an induction ratio of 1.5), Nrf2 activity: MCF7AREc32, 24 h exposure, linear regression; for induction of oxidative stress (Nrf2 activity exceeding a 1.5 induction ratio): MCF7AREc32, noncytotoxic concentrations
MCF7AREc32 cell line = conditions: for IC70, cytotoxicity / cytotoxicity (cell viability <80% vs vehicle control): MCF7AREc32, MTS test; for IC70, cytotoxicity: 24 h exposure, 70% response relative to vehicle control; for cytotoxicity (cell viability <80% vs vehicle control): up to 10 or 100 mg/L
[2] = system: AR-EcoScreen GR-KO-M1 cell line; conditions: for cytotoxicity (cell viability <80% vs vehicle control) / IC70, cytotoxicity: AR-EcoScreen GR-KO-M1, MTS test; for cytotoxicity (cell viability <80% vs vehicle control): up to 10 or 100 mg/L; for IC50: read-out: interpolated IC50, cytotoxicity, AR-EcoScreen, converted to mmol/L
DR-EcoScreen cell line = conditions: for IC70, cytotoxicity / cytotoxicity (cell viability <80% vs vehicle control): MTS test; for cytotoxicity (cell viability <80% vs vehicle control): up to 10 or 100 mg/L
human bone osteoblasts [3] = system: human bone osteoblasts; set-up: method as in Al-Ghafari et al. [55]; conditions: ref Al-Ghafari et al. [55], read-out: IC50 (MTT assay); cited from earlier work
human bone osteoblasts [4] = system: human bone osteoblasts; set-up: method as in Al-Ghafari et al. [55]; conditions: ref Al-Ghafari et al. [55], read-out: IC50 (LDH assay); cited from earlier work
VM7Luc4E2 cell line = conditions: VM7Luc4E2, ATPase test; for cytotoxicity (cell viability <80% vs vehicle control): up to 10 or 100 mg/L; for IC80: read-out: IC80, cytotoxicity
[5] = system: rat NR8383 alveolar macrophages; set-up: method as in Huang et al. [69]; conditions: highest tested 200 mg/L, ref Huang et al. [69]; cited from earlier work

[As] [As, arsenic, reference compound]
ECIR1.5 (effective concentration at an induction ratio of 1.5), Nrf2 activity [1]: 0.11 mg/L | induction of oxidative stress (Nrf2 activity exceeding a 1.5 induction ratio) [1]: found to induce oxidative stress | IC70, cytotoxicity (MCF7AREc32 cell line): 8.1 mg/L | cytotoxicity (cell viability <80% vs vehicle control) (MCF7AREc32 cell line): Cytotoxicity is shown; also recorded: cytotoxicity was identified | cytotoxicity (cell viability <80% vs vehicle control) [2]: Cytotoxicity is shown; also recorded: cytotoxicity was identified | IC50 [2]: 0.17 mmol/L | IC70, cytotoxicity (DR-EcoScreen cell line; 24 h exposure): 0.83 mg/L | cytotoxicity (cell viability <80% vs vehicle control) (DR-EcoScreen cell line): Cytotoxicity is shown; also recorded: cytotoxicity was identified | IC50 (DR-EcoScreen cell line; read-out: interpolated IC50, cytotoxicity, converted to mmol/L): 0.014 mmol/L

[Cd] [Cd, cadmium]
ECIR1.5 (effective concentration at an induction ratio of 1.5), Nrf2 activity [1]: 0.24 mg/L | induction of oxidative stress (Nrf2 activity exceeding a 1.5 induction ratio) [1]: found to induce oxidative stress | IC70, cytotoxicity (MCF7AREc32 cell line): 9.1 mg/L | cytotoxicity (cell viability <80% vs vehicle control) (MCF7AREc32 cell line): Cytotoxicity is shown; also recorded: cytotoxicity was identified | IC50 (MCF7AREc32 cell line; read-out: interpolated IC50, cytotoxicity, MCF7AREc32, converted to mmol/L): 0.087 mmol/L | IC70, cytotoxicity ([2]; 24 h exposure): 2.6 mg/L | cytotoxicity (cell viability <80% vs vehicle control) [2]: Cytotoxicity is shown; also recorded: cytotoxicity was identified | IC50 [2]: 0.052 mmol/L | cytotoxicity (cell viability <80% vs vehicle control) (DR-EcoScreen cell line): Cytotoxicity is shown; also recorded: cytotoxicity was identified | IC50 (human bone osteoblasts [3]): 32 µM | IC50 (human bone osteoblasts [4]): 63 µM

[Ga] [Ga, gallium]
ECIR1.5 (effective concentration at an induction ratio of 1.5), Nrf2 activity [1]: 0.83 mg/L | induction of oxidative stress (Nrf2 activity exceeding a 1.5 induction ratio) [1]: found to induce oxidative stress | IC70, cytotoxicity ([2]; 24 h exposure): 50 mg/L | IC70, cytotoxicity ([2]; converted from mg/L): 0.72 mmol/L | cytotoxicity (cell viability <80% vs vehicle control) [2]: Cytotoxicity is shown; also recorded: Cytotoxic effects were most clearly observed | IC70, cytotoxicity (DR-EcoScreen cell line; 24 h exposure): 100 mg/L | IC70, cytotoxicity (DR-EcoScreen cell line; converted from mg/L): 1.4 mmol/L | cytotoxicity (cell viability <80% vs vehicle control) (DR-EcoScreen cell line): Cytotoxicity is shown; also recorded: Cytotoxic effects were most clearly observed | IC70, cytotoxicity (VM7Luc4E2 cell line; 24 h exposure): 52 mg/L | IC70, cytotoxicity (VM7Luc4E2 cell line; converted from mg/L): 0.75 mmol/L | cytotoxicity (cell viability <80% vs vehicle control) (VM7Luc4E2 cell line): Cytotoxicity is shown; also recorded: Cytotoxic effects were most clearly observed

[Gd] [Gd, Gadolinium]
IC80, cytotoxicity (VM7Luc4E2 cell line; 24 h exposure): 3.7 mg/L | cytotoxicity (cell viability <80% vs vehicle control) (VM7Luc4E2 cell line): Cytotoxicity is shown; also recorded: induce cytotoxic effects | IC80 (VM7Luc4E2 cell line; converted from mg/L): 24 µM

[Ge] [Ge, germanium]
cytotoxicity (cell viability <80% vs vehicle control) (MCF7AREc32 cell line): Neither Ge nor In exhibited any cytotoxicity | cytotoxicity (cell viability <80% vs vehicle control) [2]: Neither Ge nor In exhibited any cytotoxicity | cytotoxicity (cell viability <80% vs vehicle control) (DR-EcoScreen cell line): Neither Ge nor In exhibited any cytotoxicity | cytotoxicity (cell viability <80% vs vehicle control) (VM7Luc4E2 cell line): Neither Ge nor In exhibited any cytotoxicity

[Nd+3].[Nd+3].[O-2].[O-2].[O-2] [Nd2O3]
concentration up to which no noticeable cytotoxicity was observed [5]: 6.25 mg/L

[Nd] [Nd, Neodymium]
IC70, cytotoxicity ([2]; 24 h exposure): 26 mg/L | IC70, cytotoxicity ([2]; converted from mg/L): 0.18 mmol/L | cytotoxicity (cell viability <80% vs vehicle control) [2]: Cytotoxicity is shown; also recorded: Cytotoxic effects were most clearly observed | IC70, cytotoxicity (DR-EcoScreen cell line; 24 h exposure): 31 mg/L | IC70, cytotoxicity (DR-EcoScreen cell line; converted from mg/L): 0.21 mmol/L | cytotoxicity (cell viability <80% vs vehicle control) (DR-EcoScreen cell line): Cytotoxicity is shown; also recorded: Cytotoxic effects were most clearly observed | IC70, cytotoxicity (VM7Luc4E2 cell line; 24 h exposure): 24 mg/L | IC70, cytotoxicity (VM7Luc4E2 cell line; converted from mg/L): 0.17 mmol/L | cytotoxicity (cell viability <80% vs vehicle control) (VM7Luc4E2 cell line): Cytotoxicity is shown; also recorded: Cytotoxic effects were most clearly observed

[Pb] [Pb, lead]
IC50 (human bone osteoblasts [3]): 55 µM | IC50 (human bone osteoblasts [4]): 79 µM

[Te] [Te, tellurium]
IC70, cytotoxicity ([2]; 24 h exposure): 0.28 mg/L | IC70, cytotoxicity ([2]; converted from mg/L): 2.2 × 10^–3 mmol/L | cytotoxicity (cell viability <80% vs vehicle control) [2]: Cytotoxicity is shown; also recorded: Cytotoxic effects were most clearly observed | IC70, cytotoxicity (DR-EcoScreen cell line; 24 h exposure): 8.7 mg/L | IC70, cytotoxicity (DR-EcoScreen cell line; converted from mg/L): 0.068 mmol/L | cytotoxicity (cell viability <80% vs vehicle control) (DR-EcoScreen cell line): Cytotoxicity is shown; also recorded: Cytotoxic effects were most clearly observed | IC70, cytotoxicity (VM7Luc4E2 cell line; 24 h exposure): 1.5 mg/L | IC70, cytotoxicity (VM7Luc4E2 cell line; converted from mg/L): 0.012 mmol/L | cytotoxicity (cell viability <80% vs vehicle control) (VM7Luc4E2 cell line): Cytotoxicity is shown; also recorded: Cytotoxic effects were most clearly observed

[Tl] [Tl, thallium]
cytotoxicity (cell viability <80% vs vehicle control) (MCF7AREc32 cell line): Cytotoxicity is shown; also recorded: Cytotoxicity for Tl was observed | IC80, cytotoxicity (VM7Luc4E2 cell line; 24 h exposure): 9.0 mg/L | cytotoxicity (cell viability <80% vs vehicle control) (VM7Luc4E2 cell line): Cytotoxicity is shown; also recorded: more evident | IC80 (VM7Luc4E2 cell line; converted from mg/L): 44 µM

[Yb] [Yb, Ytterbium]
IC80, cytotoxicity (VM7Luc4E2 cell line; 24 h exposure): 33 mg/L | cytotoxicity (cell viability <80% vs vehicle control) (VM7Luc4E2 cell line): Cytotoxicity is shown; also recorded: induce cytotoxic effects | IC80 (VM7Luc4E2 cell line; converted from mg/L): 190 µM

CC(C)(C)c1cc(O)ccc1O [tBHQ, tert-butylhydroquinone]
ECIR1.5 (effective concentration at an induction ratio of 1.5), Nrf2 activity [1]: 0.27 mg/L
